Results from PubChem BioAssay (NCI).
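Grown in 96-well plates, cells were treated for 48 hours with each compound at five concentrations. Insufficient inhibition: endpoint recorded as highest concentration tested. Here, GI50 denotes the concentration required for 50% inhibition of growth. The concentration for full growth arrest is given as TGI.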

Key:
Experiment in all cases: NCI-60 cell line screen, 48 h
[1] = test system: KM12 colon
[2] = test system: UO-31 renal
[3] = test system: MDA-MB-231 breast
[4] = test system: SK-OV-3 ovarian
[5] = test system: OVCAR-8 ovarian
[6] = test system: NCI/ADR-RES ovarian
[7] = test system: COLO 205 colon
[8] = test system: HCT-15 colon
[9] = test system: SF-268 CNS
[10] = test system: HS 578T breast
[11] = test system: DU-145 prostate
[12] = test system: T-47D breast
[13] = test system: UACC-62 melanoma
[14] = test system: M14 melanoma
[15] = test system: SN12C renal

Structure (SMILES)	TGI [1]	TGI [2]	TGI [3]	TGI [4]	TGI [5]	TGI [6]	TGI [7]	TGI [8]	TGI [9]	TGI [10]	TGI [11]	TGI [12]	TGI [13]	TGI [14]	TGI [15]	GI50 [1]	GI50 [6]	GI50 [9]	GI50 [10]	GI50 [11]
CC(CN(C)C)C(=O)c1ccccc1C(=O)O (centres undefined)	> 100 µM	> 100 µM	81.6 µM	> 100 µM	98.8 µM	92.6 µM	66.3 µM	> 100 µM	> 100 µM	80.6 µM	> 100 µM	> 100 µM	51.3 µM	76.6 µM	81.2 µM					
Nc1ccc(-c2ncc3cc(-c4cccc(-c5cc6cnc(-c7ccc(N)cc7)nc6c6ccccc56)c4)c4ccccc4c3n2)cc1	> 100 µM	> 100 µM	> 100 µM	> 100 µM	> 100 µM	> 100 µM	> 100 µM	> 100 µM	> 100 µM	> 100 µM	> 100 µM	> 100 µM	> 100 µM	> 100 µM	> 100 µM					
c1cc(-c2csc(-c3ccsc3)c2)cs1	> 100 µM	> 100 µM	> 100 µM	> 100 µM	> 100 µM	> 100 µM	> 100 µM	> 100 µM	> 100 µM	> 100 µM	> 100 µM	> 100 µM	> 100 µM	> 100 µM	> 100 µM					
C[C@@]12c3c4ccc(C=O)c3Oc3ccc(C=O)c(c31)Oc1c(C=O)ccc(c12)O4	> 100 µM	> 100 µM	> 100 µM	> 100 µM	> 100 µM	> 100 µM	> 100 µM	> 100 µM	> 100 µM	> 100 µM		> 100 µM	> 100 µM	> 100 µM	> 100 µM					
Cc1c(/C=N/NC(=S)Nc2cccc(Cl)c2)c(=O)n(-c2ccccc2)n1C	> 100 µM	88.7 µM	43.8 µM	38.2 µM	35.6 µM	33.8 µM	> 100 µM	> 100 µM	36.7 µM	33.6 µM	66.9 µM	> 100 µM	> 100 µM	40.1 µM						
COC(=O)CCC1(C)C2CCC1(C)/C(=N/O)C2 (centres undefined)	> 100 µM	> 100 µM	> 100 µM	> 100 µM	> 100 µM	> 100 µM	> 100 µM	> 100 µM	> 100 µM	> 100 µM	> 100 µM	> 100 µM	> 100 µM	> 100 µM	> 100 µM					
Nc1nc(N)c(C2=CCN(Cc3ccccc3)CC2)c(=O)[nH]1	> 100 µM	> 100 µM	> 100 µM	> 100 µM	> 100 µM	> 100 µM	> 100 µM	> 100 µM	> 100 µM	> 100 µM	> 100 µM	> 100 µM	> 100 µM	> 100 µM	> 100 µM					
O=c1[nH]c(=O)n(C2CC(O)C(CO)O2)cc1NN=NCCc1ccccc1 (centres undefined)	> 100 µM	> 100 µM	> 100 µM	> 100 µM	> 100 µM	> 100 µM	> 100 µM	> 100 µM	> 100 µM	> 100 µM	> 100 µM	> 100 µM	> 100 µM	> 100 µM	> 100 µM					
Oc1ccc(Cl)cc1-c1[nH]c(=S)nc(-c2ccccc2)c1Cl	> 100 µM	> 100 µM	97.2 µM	> 100 µM	> 100 µM	> 100 µM	> 100 µM	> 100 µM	> 100 µM	> 100 µM	> 100 µM	> 100 µM		> 100 µM	> 100 µM					
COc1ccc(N)c(C(O)CCNC(C)=O)c1 (centres undefined)	> 100 µM	> 100 µM	> 100 µM	> 100 µM	> 100 µM	> 100 µM	> 100 µM	> 100 µM	> 100 µM	> 100 µM	> 100 µM	> 100 µM	> 100 µM	> 100 µM	> 100 µM					
OC(CC(CC(O)(C(F)(F)Cl)C(F)(F)Cl)=NNc1ccccc1)(C(F)(F)Cl)C(F)(F)Cl	7.54 µM		6.63 µM	> 10 µM	> 10 µM	8.62 µM	3.51 µM	9.16 µM	7.44 µM	5.93 µM	9.08 µM	9.42 µM	4.95 µM	> 10 µM	> 10 µM					
C/C(=N/NC(=O)c1ccncc1)c1ccc(NC(=O)C(=O)Nn2c(=S)[nH]c3ccccc3c2=O)cc1	> 100 µM	> 100 µM	> 100 µM	> 100 µM	> 100 µM	> 100 µM	> 100 µM	> 100 µM	> 100 µM	> 100 µM	> 100 µM	> 100 µM	> 100 µM	> 100 µM	> 100 µM					
CC1(C)CC(=O)/C(=C/C2CCNC2=S)C(=O)N1 (centres undefined)	> 100 µM	> 100 µM	> 100 µM	> 100 µM	> 100 µM	> 100 µM	> 100 µM	> 100 µM	> 100 µM	> 100 µM	> 100 µM	> 100 µM	> 100 µM	> 100 µM	> 100 µM					
CCOc1cc(-c2nc3ccccn3c2/N=C/c2cc([N+](=O)[O-])cc([N+](=O)[O-])c2O)ccc1O	> 100 µM	> 100 µM	> 100 µM	> 100 µM	> 100 µM	> 100 µM	> 100 µM	> 100 µM	> 100 µM	> 100 µM	> 100 µM	> 100 µM	> 100 µM	> 100 µM	> 100 µM					
CCOC(=O)N1CCN(c2c(C)nc(C)[nH]c2=O)CC1	> 100 µM	> 100 µM	> 100 µM	> 100 µM	> 100 µM	> 100 µM	> 100 µM	> 100 µM	> 100 µM	> 100 µM	> 100 µM	> 100 µM	> 100 µM	> 100 µM	> 100 µM					
O=C1NCN(c2ccccc2)C12CCN(CCc1ccc3[nH]c(=S)[nH]c3c1)CC2	> 100 µM		41.6 µM	> 100 µM	> 100 µM	> 100 µM	30.7 µM	> 100 µM	> 100 µM	> 100 µM	> 100 µM	56.8 µM	> 100 µM	58.3 µM	> 100 µM					

Structure (SMILES)	TGI [1]	TGI [2]	TGI [3]	TGI [4]	TGI [5]	TGI [6]	TGI [7]	TGI [8]	TGI [9]	TGI [10]	TGI [11]	TGI [12]	TGI [13]	TGI [14]	TGI [15]	GI50 [1]	GI50 [6]	GI50 [9]	GI50 [10]	GI50 [11]
CCOC(=O)[C@@H]1C[C@H]1c1ccc(O)c(O)c1	> 100 µM	> 100 µM	63.1 µM	> 100 µM	> 100 µM	> 100 µM	> 100 µM	> 100 µM	> 100 µM	> 100 µM	> 100 µM	88.1 µM	34.9 µM	73.6 µM	> 100 µM					
Cn1c(NN)nc(-c2ccc([N+](=O)[O-])cc2)c(C#N)c1=O	30.1 µM	33.8 µM	28.4 µM	28.2 µM	42.3 µM	> 100 µM	47.7 µM	42.4 µM	31.1 µM	32.9 µM	30 µM	30.9 µM	29 µM	25 µM	29 µM					
CO[C@H]1[C@@H](O)[C@@H](C)O[C@@H](O[C@H]2CC[C@@]3(C)[C@H](CC[C@@H]4[C@@H]3CC[C@]3(C)[C@@H](C5=CC(=O)OC5)CC[C@]43O)C2)[C@@H]1O	0.191 µM	0.0108 µM	0.269 µM	0.0491 µM	0.0444 µM	0.0276 µM	0.221 µM	0.0419 µM	0.0366 µM	0.031 µM	0.00729 µM	0.222 µM	0.0228 µM	0.0479 µM						
CC(C)(N)CO[C@H]1C[C@H]2CC[C@@]1(C)C2(C)C	34 µM	37.7 µM	36.5 µM	> 100 µM	53.1 µM	> 100 µM	35.2 µM	47 µM	> 100 µM	79 µM	73.8 µM	35.9 µM	34.3 µM	31.4 µM	> 100 µM					
COC(=O)c1ccccc1/C=C1/Cc2cccc(C)c2C1=O	> 100 µM	> 100 µM	> 100 µM	> 100 µM	> 100 µM	> 100 µM	> 100 µM	> 100 µM	> 100 µM	> 100 µM	> 100 µM	> 100 µM	> 100 µM		> 100 µM					
CN(C)CCNc1ccc2ncnc3c2c1C(=O)c1ccccc1-3	4.55 µM	12.9 µM	4.1 µM	> 72.4 µM	10.5 µM	5.28 µM	15.5 µM	13.5 µM	4.48 µM	15.1 µM		24.7 µM	4.92 µM	1.42 µM	13.9 µM					
CN(C)/C(N)=N/C(N)=Nc1cccc(Cl)c1	> 100 µM	> 100 µM	> 100 µM	> 100 µM	> 100 µM	> 100 µM	49.8 µM	> 100 µM	> 100 µM	> 100 µM		77.2 µM	> 100 µM	> 100 µM	> 100 µM					
N#Cc1nc(C2CC2)oc1N	> 100 µM		> 100 µM	> 100 µM	> 100 µM	> 100 µM	> 100 µM	> 100 µM	> 100 µM	> 100 µM	> 100 µM	> 100 µM	> 100 µM	> 100 µM	> 100 µM					
Cc1nc2ccccc2c(=O)n1-c1n[nH]c2ccccc12	> 100 µM	> 100 µM	> 100 µM		> 100 µM	> 100 µM	> 100 µM	> 100 µM	> 100 µM	> 100 µM	> 100 µM	> 100 µM	> 100 µM	> 100 µM	> 100 µM					
FC(F)(F)c1nc2ccc(SSc3ccc4nc(C(F)(F)F)[nH]c4c3)cc2[nH]1	> 100 µM	> 100 µM	71.3 µM		> 100 µM	> 100 µM	> 100 µM	> 100 µM	> 100 µM	> 100 µM	> 100 µM	> 100 µM	> 100 µM	> 100 µM	> 100 µM	> 100 µM	> 100 µM	> 100 µM	> 100 µM	> 100 µM
CC1=C(C(=O)N[C@@H](Cc2ccccc2)C(=O)O)N2C(=O)[C@@H](NC(=O)[C@@H](N)CC(C)C)[C@H]2SC1	> 100 µM		> 100 µM		> 100 µM	> 100 µM	> 100 µM	> 100 µM	> 100 µM	> 100 µM	> 100 µM	> 100 µM	> 100 µM	> 100 µM	> 100 µM					
COc1cccc(/C(CC(O)(C(F)(F)F)C(F)(F)F)=N\N(C)C)c1	> 100 µM	> 100 µM	> 100 µM	> 100 µM		> 100 µM	> 100 µM	> 100 µM	> 100 µM	> 100 µM	> 100 µM	> 100 µM	> 100 µM	> 100 µM	> 100 µM					
CSc1ccccc1P(c1ccccc1SC)c1ccccc1SC	> 100 µM	> 100 µM	> 100 µM	> 100 µM	> 100 µM	> 100 µM		> 100 µM	> 100 µM	> 100 µM	> 100 µM	> 100 µM	> 100 µM	> 100 µM	> 100 µM					
CCCCC1Cc2ccccc2-c2n1c1ccccc1[n+]2C (centres undefined)	> 100 µM	> 100 µM	> 100 µM	> 100 µM	> 100 µM	> 100 µM		> 100 µM	> 100 µM	81.5 µM	> 100 µM	7.3 µM		> 100 µM						
Cc1cccc(-n2c(C)nc3ccc(NC4OC(CO)C(O)C(O)C4O)cc3c2=O)c1 (centres undefined)	> 100 µM	> 100 µM	> 100 µM		> 100 µM	> 100 µM	> 100 µM	> 100 µM	> 100 µM	> 100 µM	> 100 µM	> 100 µM	> 100 µM		> 100 µM					
